Experimental data taken from US8318799B2, “Therapeutic agent for substance dependence” (National University Corporation Kyushu University, priority 2004, dated 2012).

Assays:
[1] = Eur. J. Pharmacol. 421, 181-189 (2001); cited from earlier work
[2] = tested on: male Wister/ST rats; test: influence on methamphetamine-taking behavior (methamphetamine self-administration); assay type: in vivo, rat; details: 1.0 mg/kg intraperitoneally; FIG. 5
Text: FIG. 5 is a graph showing the influence of the compound of the present invention on methamphetamine self-administration.
(§1) A catheter for self-administration of methamphetamine (inner diameter of 0.5 mm, outer diameter of 1.0 mm) was inserted into the right jugular vein of male Wister/ST rats (250 to 350 g), and the end of the catheter was anchored to just outside the right atrium. An operant box used in the experiment was equipped with 2 levers. One is an active lever by which when pressed once (fixed-ratio 1 (FR1)), infusions of a very low dose of methamphetamine (0.02 mg per injection) was paired with onset of a 6-sec tone (70 dB/7 kHz) and light (300 lux) compound stimulus.
(§2) After the animal was allowed to get methamphetamine self-administration behavior (methamphetamine-taking behavior) by the self-administration experiment for 10 days (2 hours per session), physiological saline was substituted for methamphetamine, to carry out an extinction process for 5 days (1 hour per session without drug-associated cue).
For examining the influence of the compound of the present invention on methamphetamine-taking behavior, 1.0 mg/kg of the compound of the present invention was administered intraperitoneally.

[3] = tested on: male Wister/ST rats; test: methamphetamine-seeking behavior induced by drug-associated cue (drug self-administration procedure, after extinction); assay type: in vivo, rat; details: for antagonism in cue-induced methamphetamine-seeking behavior on coadministration with the compound of the present invention: 30 minutes before cue, FIG. 7
Text: (§3) First, an experimental animal is allowed to learn the drug self-administration behavior of pressing a lever to attain a substance. The animal is given a substance-containing solution simultaneously with a light-tone stimulus. After the animal is allowed to learn the substance self-administration behavior, the substance-containing solution is replaced by physiological saline. The behavior of eagerly pressing the lever for acquiring the substance comes to be observed in the experimental animal having learned the substance self-administration behavior. This behavior is regarded as substance-seeking behavior. […] However, the substance-seeking behavior will recur by the same light-tone stimulus (drug-associated stimuli) used during the self-administration training to the experimental animal or by administrating a substance inducing the central stimulant effect. This experimental system was used to examine the effect of various compounds.
(§4) Using methamphetamine as an addictive substance, the following experiments were carried out according to a method described in Neuropsychopharmacology, 29, 1470-1478 (2004).
as §1, §2
On day 6 of the extinction process, substance-seeking behavior (“craving”) was induced by drug-associated cue (tone and light) or by administering a low dose of methamphetamine (1.0 mg/kg, intraperitoneal (i.p.) administration).
Thirty minutes before this stimulation with the drug-associated cue or by the administration of a low dose of methamphetamine, […] administration of the compound of the present invention (0.32, 1.0 mg/kg, i.p.) was carried out, and a change in the methamphetamine-seeking behavior induced by drug-associated cue or by forced administration of methamphetamine was observed. […]

[4] = tested on: male Wister/ST rats; test: influence on occurrence of substance-seeking behavior by the compound itself; assay type: in vivo, rat; details: high dose 10 mg/kg i.p.; FIG. 6
[5] = tested on: male Wister/ST rats; test: methamphetamine-seeking behavior induced by forced administration of a low dose of methamphetamine (drug self-administration procedure, after extinction); assay type: in vivo, rat
Text: as §3, §4, §1
as §2, with “cue). […]” for “cue).”

Structure (SMILES): CCCNC(CCC)Cc1cc2ccccc2o1 (single isomer, unassigned; (-)) [the compound of the present invention, (−)-1-(benzofuran-2-yl)-2-propylaminopentane]
- reduction in spontaneous motor activity induced by reserpine [1]: improves
- influence on methamphetamine-taking behavior (number of active lever pressings for self-administration) [2]: did not exert any influence
- methamphetamine-seeking behavior induced by drug-associated cue ([3]; repeated administration 1.0 mg/kg i.p. in the extinction process for 5 days, FIG. 3): suppressed significantly
- methamphetamine-seeking behavior (number of active lever-pressings, 30 minutes) induced by drug-associated cue ([3]; single administration 0.32, 1.0 mg/kg i.p., 30 minutes before stimulation, day 6 of extinction, FIG. 1): suppressed significantly and dose-dependently
- occurrence of methamphetamine-seeking behavior after the compound alone [4]: although weak, caused methamphetamine-seeking behavior
- methamphetamine-seeking behavior induced by forced administration of methamphetamine ([5]; repeated administration 1.0 mg/kg i.p. in the extinction process for 5 days, FIG. 4): suppressed significantly
- methamphetamine-seeking behavior (number of active lever-pressings, 30 minutes) induced by forced administration of methamphetamine ([5]; single administration 0.32, 1.0 mg/kg i.p., 30 minutes before methamphetamine 1.0 mg/kg i.p., day 6 of extinction, FIG. 2): suppressed significantly and dose-dependently

Structure (SMILES): CN1CCc2cc(Cl)c(O)cc2[C@@H](c2ccccc2)C1.Cl [SCH23390, R-(+)-7-chloro-8-hydroxy-3-methyl-1-phenyl-2,3,4,5-tetrahydro-1H-3-benza zepine hydrochloride, reference compound]
- antagonism in cue-induced methamphetamine-seeking behavior on coadministration with the compound of the present invention ([3]; SCH23390 0.0001 mg/kg s.c. with the compound of the present invention (0.32, 1.0 mg/kg i.p.)): showed a tendency to be antagonized

Structure (SMILES): CCN1CCCC1CNC(=O)c1cc(S(=O)(=O)CC)ccc1OC (stereo not shown) [sultopride, reference compound]
- antagonism in cue-induced methamphetamine-seeking behavior on coadministration with the compound of the present invention ([3]; sultopride 10 mg/kg i.p. with the compound of the present invention (0.32, 1.0 mg/kg i.p.)): not
- antagonism in methamphetamine-induced methamphetamine-seeking behavior on coadministration with the compound of the present invention ([5]; sultopride 10 mg/kg i.p. with the compound of the present invention (0.32, 1.0 mg/kg i.p.), 30 minutes before low dose of methamphetamine, FIG. 8): not
